Tests used:
[1] = system: NCI-H460; test: Cytotoxicity against human NCI-H460 cells assessed as inhibition of cell growth; assay type: functional, cell-based
[2] = system: Bacillus subtilis; test: Antibacterial activity against Bacillus subtilis ATCC 6633 assessed as inhibition of bacterial growth; assay type: functional, organism-based
[3] = system: Staphylococcus aureus; test: Antibacterial activity against Staphylococcus aureus ATCC 25923 assessed as inhibition of bacterial growth; assay type: functional, organism-based
[4] = system: SW-620; test: Cytotoxicity against human SW620 cells assessed as inhibition of cell growth; assay type: functional, cell-based
[5] = system: Escherichia coli; test: Antibacterial activity against Escherichia coli ATCC 11775 assessed as inhibition of bacterial growth; assay type: functional, organism-based
[6] = system: Candida albicans; test: Antifungal activity against Candida albicans ATCC 10231 assessed as inhibition of bacterial growth; assay type: functional, organism-based

Measured: IC50

C[C@@H]1O[C@@H](Oc2cccc3nc4c(C(=O)O)cc5c(c4nc23)[C@@H]2Cc3nc4cccc(O)c4nc3[C@@](O)(C2)O5)[C@H](O)[C@H](O)[C@H]1O
> 30 µM: all assays above

C[C@@H]1O[C@@H](Oc2cc(C(=O)O)c3nc4cccc(O)c4nc3c2)[C@H](O)[C@H](O)[C@H]1O
> 30 µM: all assays above

C[C@H]1O[C@H](Oc2cccc3nc4c(N(C)c5ccc(C(=O)O)cc5)cccc4nc23)[C@@H](O)[C@@H](O)[C@@H]1O
> 30 µM: all assays above

O=C(O)c1cc2c(c3nc4c(O)cccc4nc13)[C@H]1Cc3nc4cccc(O)c4nc3[C@@H](O2)[C@H]1O
> 30 µM: all assays above

CN(c1ccc(C(=O)O)cc1)c1cccc2nc3c(O)cccc3nc12 [IZUMIPHENAZINE C]
> 30 µM: all assays above

O=C(O)c1cc2c(c3nc4c(O)cccc4nc13)[C@@H]1Cc3nc4cccc(O)c4nc3[C@@](O)(C1)O2
> 30 µM: all assays above

C[C@H]1O[C@H](Oc2cccc3nc4ccccc4nc23)[C@@H](O)[C@@H](O)[C@@H]1O
> 30 µM: all assays above

C[C@@H]1O[C@@H](Oc2cccc3nc4c(C(=O)O)cc5c(c4nc23)[C@H]2Cc3nc4cccc(O)c4nc3[C@@H](O5)[C@H]2O)[C@H](O)[C@H](O)[C@H]1O
> 30 µM: all assays above
